According to patent US8044082B2, “N-phenylacetamide inhibitors of the enzyme SOAT-1 and pharmaceutical/cosmetic compositions comprised thereof” (Galderma Research & Development, priority 2007, dated 2011):

Legend:
[1] = molecular target: T1, enzyme ACAT-1 (Homo sapiens, UniProt P35610); test: ACAT-1 (SOAT-1) inhibition test in HepG2 cells with NBD-cholesterol fluorescence; type: cell-based; conditions: NBD-cholesterol 1 μg/ml, incubation 6 h at 37° C., fluorescence excitation 490 nm / emission 540 nm
T1 sequence (P35610 1-550): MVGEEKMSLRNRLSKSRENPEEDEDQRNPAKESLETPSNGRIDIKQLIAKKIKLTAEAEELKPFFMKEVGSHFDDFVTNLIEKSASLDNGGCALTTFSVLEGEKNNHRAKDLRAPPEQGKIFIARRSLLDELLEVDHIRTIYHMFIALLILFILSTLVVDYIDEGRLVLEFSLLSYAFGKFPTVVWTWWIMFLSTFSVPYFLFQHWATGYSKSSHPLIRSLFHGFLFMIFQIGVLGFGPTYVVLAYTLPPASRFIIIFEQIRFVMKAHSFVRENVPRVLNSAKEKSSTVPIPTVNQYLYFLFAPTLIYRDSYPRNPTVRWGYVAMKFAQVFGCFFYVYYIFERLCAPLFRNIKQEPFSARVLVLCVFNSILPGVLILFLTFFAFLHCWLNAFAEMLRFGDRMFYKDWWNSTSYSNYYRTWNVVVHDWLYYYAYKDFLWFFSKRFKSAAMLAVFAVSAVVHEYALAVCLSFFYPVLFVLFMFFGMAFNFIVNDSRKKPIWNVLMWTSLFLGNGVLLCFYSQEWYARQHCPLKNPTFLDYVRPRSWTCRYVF
Description: The compounds (I) according to the invention, as well as their pharmaceutically acceptable salts, solvates and/or hydrates, have inhibitory properties on the enzyme SOAT-1. This inhibitory activity on the enzyme SOAT-1 is measured according to a primary enzymatic test HepG2, as described in Example 64.
The compounds of formula (I) according to the invention have been subjected to a test allowing their inhibitory action with respect to the enzyme ACAT-1 to be evaluated inspired by the following publication: “Identification of ACAT1- and ACAT2-specific inhibitors using a novel, cell-based fluorescence assay: individual ACAT uniqueness”, J. Lipid Res. (2004) vol. 45, pages 378-386.
The principle of this test is based on the employment of NBD-cholesterol, an analogue of cholesterol whose fluorescence depends on its environment. When this is present in a polar environment, it is weakly fluorescent although in a nonpolar environment it is strongly fluorescent. Free NBD-cholesterol locates itself in the cell membranes and is weakly fluorescent in this polar environment. When the NBD-cholesterol is esterified by ACAT, the ester of NBD-cholesterol locates itself in the nonpolar lipid droplets and is in that case strongly fluorescent.
The method below is applied: The HepG2 cells are incubated in the presence of NBD-cholesterol (1 μg/ml) and of the compound of formula (I) to be tested in black 96-well plates with a transparent base at a rate of 30 000 cells per well. After incubation for 6 h at 37° C., under 5% CO2, the medium is eliminated by turning over and the cells are washed with 2 times 100 μl of PBS. After addition of 50 μl of lysis buffer (NaPO4 10 mM, Igepal 1%), the plates are stirred for 5 min and read in fluorescence (excitation 490 nm, emission 540 nm) on a FUSION apparatus (Perkin-Elmer).

Structure (SMILES) | IC50 [1] [nM] | melting point [°C]
CC(C)c1cccc(C(C)C)c1NC(=O)CN1C(=O)N(C2CCCCC2)C2(CCCCC2)C1=O [compound (I.14), 2-[1-Cyclohexyl-2,4-dioxo-1,3-diazaspiro[4.5]dec-3-yl)-N-(2,6-diisopropyl-phenyl)acetamide] | 4.8 | 236
CC(C)c1cccc(C(C)C)c1NC(=O)CN1C(=O)N(CCc2ccccc2)C2(CCCCC2)C1=O [compound (I.23), N-(2,6-Diisopropylphenyl)-2-(2,4-dioxo-1-phenethyl-1,3-diazaspiro[4.5]dec-3-yl)acetamide] | 5.6 | 225
Cc1ccc(N2C(=O)N(CC(=O)Nc3c(C)cccc3Cl)C(=O)C23CCCCC3)cc1 [compound (I.46), N-(2-Chloro-6-methylphenyl)-2-(2,4-dioxo-1-p-tolyl-1,3-diazaspiro[4.5]dec-3-yl)acetamide] | 5.1 | 244
Cc1ccc(N2C(=O)N(CC(=O)Nc3c(C)cc(C)cc3Br)C(=O)C23CCCCC3)cc1 [compound (I.52), N-(2-Bromo-4,6-dimethylphenyl)-2-(2,4-dioxo-1-p-tolyl-1,3-diazaspiro[4.5]dec-3-yl)acetamide] | 5.3 | 245
CCc1cccc(CC)c1NC(=O)CN1C(=O)N(c2ccc(Cl)cc2)C2(CCCC2)C1=O [compound (I.61), 2-[1-(4-Chlorophenyl)-2,4-dioxo-1,3-diazaspiro[4.4]non-3-yl]-N-(2,6-diethylphenyl)acetamide] | 2.7 | 218

Second part, the compound after the results:

IC50 [1] [nM] | melting point [°C] | Structure (SMILES)
0.2 | 234 | Cc1ccc(N2C(=O)N(CC(=O)Nc3c(C(C)C)cccc3C(C)C)C(=O)C23CCCCC3)cc1 [compound (I.10), N-(2,6-Diisopropylphenyl)-2-(2,4-dioxo-1-p-tolyl-1,3-diazaspiro[4.5]dec-3-yl)acetamide]
2.5 | 241 | CCCCN1C(=O)N(CC(=O)Nc2c(C(C)C)cccc2C(C)C)C(=O)C12CCCCC2 [compound (I.26), 2-(1-Butyl-2,4-dioxo-1,3-diazaspiro[4.5]dec-3-yl)-N-(2,6-diisopropylphenyl)acetamide]
0.7 | 174 | CCC1(CC)C(=O)N(CC(=O)Nc2c(C(C)C)cccc2C(C)C)C(=O)N1c1ccc(C)cc1 [compound (I.39), 2-(4,4-Diethyl-2,5-dioxo-3-p-tolylimidazolidin-1-yl)-N-(2,6-diisopropylphenyl)acetamide]
